Where “and” joins values, the source holds several entries; their conditions need not be identical. Identical values can stand only once.
Assays:
[1] = system: form deprivation myopia model of guinea pigs; test: FDM guinea pig model, subconjunctival injection of AVA; format: in vivo; settings: 1 week
Experimental: The modeling method for myopic individuals was the same as other embodiments of the present invention. […] No other active substances or excipients were added.

[2] = system: form deprivation myopia model of guinea pigs; test: FDM guinea pig model, eye drops (non-invasive administration); format: in vivo
Experimental: The purpose of this experiment was to evaluate the effect of vinpocetine on myopia through non-invasive administration. All tested drugs were formulated into eye drops. […] No other active substances or excipients were added to the above eye drops.

[3] = system: form deprivation myopia model of guinea pigs; test: FDM guinea pig model, subconjunctival injection, salmeterol/tiotropium/vinpocetine; settings: 0.1% atropine, 2 weeks
Text: The form deprivation myopia model of guinea pigs described in the present invention was used to evaluate the efficacy. […] On the first day of the experiment, guinea pigs were subjected to form deprivation at 8 a.m. using a mask method, with the right eye covered (experimental eye) and the left eye uncovered (contralateral eye). Starting from the day of modeling, solvents or drugs for the corresponding groups were given to the experimental eyes at 9-10 a.m. every day by eyeball subconjunctival injection at an injection volume of 100 μL, once a day for 2 weeks. The refraction and axial parameters of the animals were detected before the start of the efficacy experiment and at the end of the experiment. All data collection and processing methods were the same as in other embodiments of the present invention. The statistical basis was the difference between the experimental eye and the contralateral eye of the same subject individual.

[4] = 0.1% atropine eye drops, 2 weeks
[5] = 0.1% atropine eye drops, 2 weeks (rounded and actual value)

SMILES	axial length difference between the eyes ([1]; AVA 1 μM) [mm]	inhibition rate for the axial length ([1]; AVA 1 μM) [%]	inhibition rate for the vitreous chamber depth ([1]; AVA 1 μM) [%]	ocular abnormalities ([1]; AVA 1 μM)	refraction inhibition rate ([1]; AVA 1 μM) [%]	vitreous chamber depth difference between the eyes ([1]; AVA 1 μM) [mm]	refraction difference between the eyes ([1]; FDM, AVA 1 μM subconjunctival 100 μL once a day) [D]	therapeutic effect on the guinea pig myopia model ([2]; 0.01% atropine eye drops, same administration conditions)	inhibition rate for the vitreous chamber depth [2, 4] [%]	refraction inhibition rate [2, 4] [%]	axial length difference between the eyes [2, 5]	vitreous chamber depth difference between the eyes [2, 5]	pupil dilation ([2]; 0.1% atropine eye drops, during administration)	refraction difference between the eyes (model-induced myopia) ([2]; FDM, 0.1% atropine eye drops 25 μL twice a day, 2 weeks) [D]	corneal curvature (RCC), anterior chamber depth (ACD) and lens thickness (LT) [3]	pupil dilation ([3]; subconjunctival)	refraction change towards negative, axial length elongation and vitreous chamber depth increase vs negative control ([3]; FDM, subconjunctival)	efficacy as positive control ([1]; 0.1% atropine subconjunctival)	pupil dilation ([1]; 0.1% atropine subconjunctival)
CC[C@@]12C=C(C(=O)O)n3c4c(c5ccccc53)CCN(CCC1)[C@H]42 [AVA, apovincaminic acid]	0.07±0.03	36.4	34.7	no ocular abnormalities were observed	39.6	0.06±0.02	−2.65±1.18												
CN1[C@@H]2CC[C@H]1C[C@@H](OC(=O)C(CO)c1ccccc1)C2 (stereo partly shown) [atropine]								did not have any therapeutic effect	21.8	40.0	0.11±0.05 mm and 0.1093±0.0530 mm	0.11±0.05 mm and 0.1107±0.0502 mm	Adverse reactions of pupil dilation occurred	−3.93±1.75	not affected by the drug	pupil dilation occurred	significantly inhibited	showed its due efficacy	Pupil dilation occurred
